Test system: gram negative and gram positive bacilli
Assay: Ozone treatment of precipitated calcium carbonate slurry; bioburden / log reduction of bacteria at sampling points
Type: cell-based
Description: A precipitated calcium carbonate slurry was prepared as shown FIG. 1. At the precipitation phase of the “Region of High Microbial Growth”, FIG. 1), the slurry was contaminated with gram negative and gram positive bacilli. The shiny was then continuously transferred from a precipitation tank (not shown) to a neutralization tank (100). Upon entry into the neutralization tank, the slurry was neutralized using carbon dioxide. A sample was collected from the neutralization tank to assess the initial bioburden of the slurry (3.6×10^6 CFU/g). After neutralization, 3.5 or 5 ppm (depending on trial) of ozone was injected into the slurry after circulation through the pump (120) (FIG. 3). […] The pH of the slurry in the neutralization tank ranged from 6.9 to 8.3 and the temperature ranged from 24° C. to 46° C.
The degree of log reduction in bacteria was sampled at sampling point 1 (160) (FIG. 3) at time zero and every five minutes up to 40 minutes. As depicted in Table 1, below, a 1-2 log reduction of bacteria was observed after 40 minutes under recirculation.
A precipitated calcium carbonate slurry was prepared according to Example 1. Five trials were conducted. The ozone was injected as described in Example 1 at a concentration ranging from 5 ppm to 25 ppm. Samples were taken after 40 minutes of recirculation, 40 minutes after ozone contact with the slurry in the neutralization tank (100) or immediately after the slurry passed through the static mixer (140) as shown in FIG. 3. […] This difference is log reduction may be attributable to the mixing of ozone-treated slurry in the neutralization tank (100) with the non-treated slurry from the precipitation tank (not shown).
The sampling variability was confirmed in further trials by assessing the ozone concentration before and after ozone treatment and assessing the bioburden from samples taken at sampling point 1 (160) or sampling point 2 (150). In one trial, an initial bioburden (without ozone) of a sample collected from the slurry tank was 3.6×10^6 CFU/g. After an ozone injection at a 5 ppm concentration, the amount of bioburden was reduced to 1.7×10^4 CFU/g after 40 minutes recirculation. […] However, when a sample in the third trial was collected and tested at sampling point 2 (150) a few seconds after ozone injection, the bioburden was less than 10 CFU/g. Accordingly, the data support that the disclosed process using ozone treatment is capable of reducing an initial bioburden by 5 log, i.e., 10^6 to 10^1 CFU/g.

O=[O+][O-] [ozone]
log reduction of bacteria (Example 1 summary, 3.5 or 5 ppm ozone, sampling point 1, after 40 minutes under recirculation): 1-2 log
Log Reduction (Example 1 trial T1, sampling point 1, ozone 5.0 ppm, 12% PCC, pH 8.3, 24 °C, 40 minutes under recirculation): 2 log
Log Reduction (Example 1 trial T2, sampling point 1, ozone 5.0 ppm, 28% PCC, pH 7.2, 33 °C, 40 minutes under recirculation): 2 log
Log Reduction (Example 1 trial T3, sampling point 1, ozone 3.5 ppm, 39% PCC, pH 6.9, 33 °C, 40 minutes under recirculation): 1 log
Log Reduction (Example 1 trial T4, sampling point 1, ozone 5.0 ppm, 39% PCC, pH 6.9, 46 °C, 40 minutes under recirculation): 2 log
log reduction of bacteria (Example 2 summary, higher ozone injection (25 ppm)): 4-5 log
log reduction of bacteria (Example 2 summary, lower concentrations of injected ozone): 1-2 log
Log Reduction (Example 2 trial T1, sampling point 1, ozone 7.5 ppm, Recirculation, pH 8.3, 40 minutes): 2 log
Log Reduction (Example 2 trial T2, sampling point 1, ozone 7.5 ppm, Recirculation, pH 7.2, +40 minutes): +2 log
Log Reduction (Example 2 trial T3, sampling point 1, ozone 5 ppm, Within Tank, pH 6.9, 40 minutes): 1 log
Log Reduction (Example 2 trial T4, sampling point 1, ozone 25 ppm, Recirculation, pH 6.9, 40 minutes): 2 log
Log Reduction (Example 2 trial T5, sampling point 2, ozone 25 ppm, After initial flow through static mixer, pH 6.9, seconds): 4-5 log
bioburden (Example 3 another trial, initial bioburden 8.8×10^5 CFU/g, sampling point 2, seconds after ozone injection): 7.0×10^1 CFU/g
reduction of initial bioburden (Example 3 conclusion, 10^6 to 10^1 CFU/g): 5 log
bioburden (Example 3 first trial, initial bioburden 3.6×10^6 CFU/g, ozone 5 ppm, after 40 minutes recirculation): 1.7×10^4 CFU/g
bioburden (Example 3 first trial, initial bioburden 3.6×10^6 CFU/g, ozone 5 ppm, sampling point 2): 9.1×10^1 CFU/g
bioburden (Example 3 third trial, sampling point 1, after ozone treatment and 40 minutes recirculation (mixed with untreated slurry)): 8.8×10^5 CFU/g
bioburden (Example 3 third trial, sampling point 2, a few seconds after ozone injection): less than 10 CFU/g

Source: US10918753B2, “Use of ozone to control bioburden in precipitated calcium carbonate slurry (PCC)” (Colgate-Palmolive Company, priority 2014, dated 2021)
